For one assay, the system named is TCT1. As to the kind of experiment: (§1) Cytotoxicity against human TCT1 cells after 48 hrs by calcein-AM dye based fluorescence assay. Type of assay: functional, cell-based.
A further assay deals with Bacillus subtilis. As to the kind of experiment: Antibacterial activity against Bacillus subtilis. Type of assay: functional.
Assay [1] in a line: as §1. Type of assay: functional, cell-based. Conditions: TCT1, 48 h.

≈ marks a conversion by molar mass, not a printed value. Calls of active or inactive are those of the source. No cut-off for these calls is given here.

The text below walks through data of ChEMBL document CHEMBL3352805, “Structure and Stereochemical Determination of Hypogeamicins from a Cave-Derived Actinomycete” (J Nat Prod, 2014).

What is called MIC is the least concentration at which growth counts as inhibited. Usually IC50 stands for the concentration needed to halve the response being measured.

Regarding `CCC[C@H]1O[C@H](C(O)C(N)=O)C[C@]23O[C@]12C(=O)c1c(O)cc(OC)cc1C3=O` (stereo partly drawn), the result with TCT1 was inactive. For the same compound, inhibition of growth with Bacillus subtilis (MIC) required 7 µg/mL (≈ 17.9 µM).
On to GENTAMICIN, for which the minimum inhibitory concentration (MIC) against Bacillus subtilis was 0.125 µg/mL.
Take `COC(=O)CC1CC2(SC34CC(CCO)OC(C)C3(O)C(=O)c3c(O)cccc3C4=O)C(=O)c3cccc(O)c3C(=O)C2(O)C(C)O1` (stereo not drawn): the IC50 in assay [1] was 6.4 µM.
Regarding `CCC[C@H]1O[C@H](CC(N)=O)C[C@]2(O)C(=O)c3cc(OC)cc(O)c3C(=O)[C@@]12O`, the outcome with TCT1 was inactive. Further, the MIC with Bacillus subtilis is 28 µg/mL (≈ 71.2 µM).
Take `CC(=O)O[C@H]1C(=O)[C@@]2(C)[C@H]([C@H](OC(=O)c3ccccc3)[C@]3(O)C[C@H](OC(=O)[C@H](O)[C@@H](NC(=O)c4ccccc4)c4ccccc4)C(C)=C1C3(C)C)[C@]1(OC(C)=O)CO[C@@H]1C[C@@H]2O` [PACLITAXEL]: the IC50 in assay [1] was 0.0025 µM.
With `CCC[C@H]1O[C@H](CC(N)=O)C[C@]23O[C@]12C(=O)c1c(O)cc(OC)cc1C3=O`, the outcome in the assay with TCT1 was inactive. The same compound had an MIC against Bacillus subtilis of 7 µg/mL (≈ 18.6 µM).
As to `CC[C@H]1OC(=O)[C@H](C)[C@@H](O[C@H]2C[C@@](C)(OC)[C@@H](O)[C@H](C)O2)[C@H](C)[C@@H](O[C@@H]2O[C@H](C)C[C@H](N(C)C)[C@H]2O)[C@](C)(O)C[C@@H](C)C(=O)[C@H](C)[C@@H](O)[C@]1(C)O` [ERYTHROMYCIN], the MIC against Bacillus subtilis is 0.125 µg/mL (≈ 0.17 µM).
On to `COC(=O)CC1CC2(SC34CC(CC(=O)OC)OC(C)C3(O)C(=O)c3c(O)cccc3C4=O)C(=O)c3cccc(O)c3C(=O)C2(O)C(C)O1` (stereo not drawn), for which the half-inhibitory concentration (IC50) in assay [1] is 6.4 µM.
On to `CCC[C@H]1O[C@H](CC(N)=O)C[C@]2(S[C@]34C[C@@H](CC(N)=O)O[C@H](CCC)[C@]3(O)C(=O)c3c(O)cc(OC)cc3C4=O)C(=O)c3cc(OC)cc(O)c3C(=O)[C@@]12O`, for which the Cytotoxicity entry with TCT1 is “Active”. Also, the MIC result in the assay with Bacillus subtilis is “inactive”.
